Our source for the IC50 and melting point values is patent publication US6511993B1, “Metalloprotease inhibitors” (priority 1999, dated 2003).

Each structure is given as a SMILES string. Counter-ions that a name gives are not always drawn.

In general, IC50 refers to the concentration needed to halve the response being measured. Lower therefore signals inhibition by little substance. Broadly, the melting point is the temperature of the solid-liquid transition.

One series concerns the target MMP-9 (Homo sapiens, UniProt P14780). Nature of the series: Inhibition of MMP-9, fluorogenic peptide cleavage. It counts as biochemical. As to conditions: catalytic domain MMP-9, 1 nM enzyme, 5 μM substrate. Here is the method: (§1) The biological activities of the compounds of the present invention were determined by the following test methods, which are based on the ability of the compounds to inhibit the cleavage of various fluorogenic peptides by MMPs 1, 2, 3, 9, 13 and 14.
(§2) The assays for MMPs 2, 3, 9 and 14 are based upon the original protocol described in Fed. Euro. Biochem. Soc., 1992, 296, 263, with the minor modifications described below.
(§3) Inhibition of MMP-2, MMP-3 and MMP-9
(§4) Catalytic domains MMP-2, MMP-3 and MMP-9 were prepared in Pfizer Central Research laboratories in a standard manner from sources known to the skilled person, including some of the references mentioned herein. A stock solution of MMP-2, MMP-3 or MMP-9 (1 μM) was activated by the addition of APMA. For MMP-2 and MMP-9, a final concentration of 1 mM APMA was added, followed by incubation for 1 hour at 37° C. MMP-3 was activated by the addition of 2 mM APMA, followed by incubation for 3 hours at 37° C. The enzymes were then diluted in Tris-HCl assay buffer (100 mM Tris, 100 mM NaCl, 10 mM CaCl2 and 0.16% Brij 35, pH 7.5) to a concentration of 10 nM. The final concentration of enzyme used in the assays was 1 nM.
(§5) The fluorogenic substrate used in this screen was Mca-Arg-Pro-Lys-Pro-Tyr-Ala-Nva-Trp-Met-Lys(Dnp)-NH2 (Bachem Ltd., Essex, UK) as originally described in J. Biol. Chem., 1994, 269, 20952. This substrate was selected because it has a balanced hydrolysis rate against MMPs 2, 3 and 9 (kcat/km of 54,000, 59,400 and 55,300 s^−1 M^−1 respectively). The final substrate concentration used in the assay was 5 μM.
(§6) Determination of Enzyme Inhibition
(§7) The test compound was dissolved in dimethyl sulphoxide and diluted with assay buffer so that no more than 1% dimethyl sulphoxide was present. Test compound and enzyme were added to each well of a 96 well plate and allowed to equilibrate for 15 minutes at 37° C. in an orbital shaker prior to the addition of substrate. Plates were then incubated for 1 hour at 37° C., prior to determination of fluorescence using a fluorimeter (Fluostar; BMG LabTechnologies, Aylesbury, UK) at an excitation wavelength of 328 nm and emission wavelength of 393 nm. The potency of inhibition was measured from the amount of substrate cleavage obtained using a range of test compound concentrations and, from the resulting dose-response curve, an IC50 value (the concentration of inhibitor required to inhibit 50% of the enzyme activity) was calculated.

The target in a further series is T1, MMP-14 (Homo sapiens, UniProt P50281).
T1 construct: Catalytic domain MMP-14 was prepared; made in house
Nature of the series: Inhibition of MMP-14, fluorogenic peptide cleavage. As to conditions: catalytic domain MMP-14, 1 nM enzyme. Format: biochemical. Here is the method:
as §1, §2
Catalytic domain MMP-14 was prepared in Pfizer Central Research laboratories in a standard manner from sources known to the skilled person, including some of the references mentioned herein. A 10 μM enzyme stock solution was activated for 20 minutes at 25° C. following the addition of 5 μg/ml of trypsin (Sigma, Dorset, UK). The trypsin activity was then neutralised by the addition of 50 μg/ml of soyabean trypsin inhibitor (Sigma, Dorset, UK), prior to dilution of this enzyme stock solution in Tris-HCl assay buffer (100 mM Tris, 100 mM NaCl, 10 mM CaCl2, 0.16% Brij 35, pH 7.5) to a concentration of 10 nM. The final concentration of enzyme used in the assay was 1 nM.
The fluorogenic substrate used in this screen was Mca-Pro-Leu-Gly-Leu-Dpa-Ala-Arg-NH2 (Bachem Ltd., Essex, UK) as described in J. Biol. Chem., 1996, 271, 17119.
Determination of enzyme inhibition
This was performed in the same manner as described for MMPs 2, 3 and 9.

In another series the target is MMP-2 (Homo sapiens, UniProt P08253). Nature of the series: Inhibition of MMP-2, fluorogenic peptide cleavage. Format: biochemical. As to conditions: catalytic domain MMP-2, 1 nM enzyme, 5 μM substrate. The protocol: as §1, §2, §3, §4, §5, §6, §7
The target in another series is T2, MMP-1 (Homo sapiens, UniProt P03956).
T2 construct: Catalytic domain MMP-1 was prepared; made in house
T2 sequence (P03956 100-269 limits assumed): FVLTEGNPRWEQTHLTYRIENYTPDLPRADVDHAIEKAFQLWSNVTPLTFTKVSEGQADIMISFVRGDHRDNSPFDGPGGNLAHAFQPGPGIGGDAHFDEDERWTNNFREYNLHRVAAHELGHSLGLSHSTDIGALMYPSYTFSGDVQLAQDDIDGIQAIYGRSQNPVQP
As to the kind of experiment: Inhibition of MMP-1, fluorogenic peptide cleavage. It counts as biochemical. Particulars: catalytic domain MMP-1, 1 nM enzyme, 10 μM substrate. Here is the method: as §1
Catalytic domain MMP-1 was prepared in Pfizer Central Research laboratories in a standard manner from sources known to the skilled person, including some of the references mentioned herein. A stock solution of MMP-1 (1 μM) was activiated by the addition of aminophenylmercuric acetate (APMA), at a final concentration of 1 mM, for 20 minutes at 37° C. MMP-1 was then diluted in Tris-HCl assay buffer (50 mM Tris, 200 mM NaCl, 5 mM CaCl2, 20 μM ZnSO4 and 0.05% Brij 35, pH 7.5) to a concentration of 10 nM. The final concentration of enzyme used in the assay was 1 nM.
The fluorogenic substrate used in this assay was Dnp-Pro-β-cyclohexyl-Ala-Gly-Cys(Me)-His-Ala-Lys-(N-Me-Ala)-NH2 as originally described in Anal. Biochem., 1993, 212, 58. The final substrate concentration used in the assay was 10 μM.
as §6
as §7, with “C.” for “C.,”, “fluorescence (substrate cleavage)” for “fluorescence”, “355” for “328”, “440” for “393”, “IC50,” for “IC50”

The next series deals with T3, MMP-3 (Homo sapiens, UniProt P08254).
T3 construct: Catalytic domains MMP-2, MMP-3 and MMP-9 were prepared; made in house
Nature of the series: Inhibition of MMP-3, fluorogenic peptide cleavage. It counts as biochemical. As to conditions: catalytic domain MMP-3, 1 nM enzyme, 5 μM substrate. Here is the method: as §1, §2, §3, §4, §5, §6, §7

T3 sequence (P08254 100-272 limits assumed): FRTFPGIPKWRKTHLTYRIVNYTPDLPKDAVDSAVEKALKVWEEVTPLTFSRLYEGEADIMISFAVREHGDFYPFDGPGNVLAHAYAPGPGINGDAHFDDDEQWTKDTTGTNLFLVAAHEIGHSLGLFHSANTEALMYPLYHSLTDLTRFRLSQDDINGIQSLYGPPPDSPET
MMP-2, sequence (P08253 whole entry, the tested form may be a part): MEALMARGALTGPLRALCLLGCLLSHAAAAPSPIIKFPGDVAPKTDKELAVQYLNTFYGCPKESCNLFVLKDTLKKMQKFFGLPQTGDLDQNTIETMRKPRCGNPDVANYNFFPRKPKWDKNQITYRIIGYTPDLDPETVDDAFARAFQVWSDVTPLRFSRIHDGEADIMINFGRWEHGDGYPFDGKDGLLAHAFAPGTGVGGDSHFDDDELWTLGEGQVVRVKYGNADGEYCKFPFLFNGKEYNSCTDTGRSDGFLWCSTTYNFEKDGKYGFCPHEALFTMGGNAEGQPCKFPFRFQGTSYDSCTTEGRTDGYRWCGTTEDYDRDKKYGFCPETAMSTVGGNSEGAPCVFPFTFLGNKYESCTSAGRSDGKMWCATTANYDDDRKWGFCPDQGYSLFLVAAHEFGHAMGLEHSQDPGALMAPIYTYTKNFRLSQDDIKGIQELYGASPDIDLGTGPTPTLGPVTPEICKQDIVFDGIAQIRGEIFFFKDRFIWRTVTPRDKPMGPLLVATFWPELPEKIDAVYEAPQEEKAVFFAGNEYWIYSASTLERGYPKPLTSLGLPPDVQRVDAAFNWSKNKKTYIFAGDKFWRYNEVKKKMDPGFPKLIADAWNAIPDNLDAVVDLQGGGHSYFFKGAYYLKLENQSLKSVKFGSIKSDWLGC
MMP-9, sequence (P14780 whole entry, the tested form may be a part): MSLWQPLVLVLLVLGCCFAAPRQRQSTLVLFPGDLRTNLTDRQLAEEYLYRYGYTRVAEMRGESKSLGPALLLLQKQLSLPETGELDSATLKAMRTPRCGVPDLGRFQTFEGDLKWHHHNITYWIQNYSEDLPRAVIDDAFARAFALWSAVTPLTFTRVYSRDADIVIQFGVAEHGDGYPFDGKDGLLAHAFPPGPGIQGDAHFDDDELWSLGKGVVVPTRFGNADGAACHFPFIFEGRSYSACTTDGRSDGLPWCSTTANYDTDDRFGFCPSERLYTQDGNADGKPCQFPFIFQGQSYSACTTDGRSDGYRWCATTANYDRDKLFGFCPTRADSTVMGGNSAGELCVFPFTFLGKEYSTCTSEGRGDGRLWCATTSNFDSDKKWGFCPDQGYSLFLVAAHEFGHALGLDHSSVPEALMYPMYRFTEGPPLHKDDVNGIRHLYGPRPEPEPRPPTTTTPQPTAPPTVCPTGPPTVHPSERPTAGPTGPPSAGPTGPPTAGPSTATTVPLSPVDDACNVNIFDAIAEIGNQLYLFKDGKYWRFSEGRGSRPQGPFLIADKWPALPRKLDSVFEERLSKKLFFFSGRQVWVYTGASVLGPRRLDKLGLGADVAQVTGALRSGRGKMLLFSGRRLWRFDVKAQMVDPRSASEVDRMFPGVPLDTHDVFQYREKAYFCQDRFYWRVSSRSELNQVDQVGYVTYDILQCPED

In the case of `Cc1cc(C2CCN(S(=O)(=O)C3(C(=O)NO)CCOCC3)CC2)ccc1-c1cccc(OC[C@@H](O)CO)c1` [Example 10, N-Hydroxy 4-{4-[4-(3-{(2S)-2-hydroxy-2-hydroxymethyl}ethoxyphenyl)-3-methylphenyl]-piperidin-1-ylsulphonyl}-tetrahydro-2H-pyran-4-carboxamide], the IC50 at MMP-9 was above 70 nM; at MMP-14, above 2000 nM; against MMP-2, above 100 nM; on MMP-1, above 1000 nM; on MMP-3, below 10 nM.

In the case of `CNCc1cccc(-c2ccc(C3CCN(S(=O)(=O)C4(C(=O)NO)CCOCC4)CC3)cc2C)c1.Cl`, the melting point fell in the range of 213 to 214 °C.

As for `Cc1cc(C2CCN(S(=O)(=O)C3(C(=O)NO)CCOCC3)CC2)ccc1-c1cccc(OCCO)n1` [Example 3, N-Hydroxy 4-{[4-(4-{6-[2-hydroxyethoxy]pyridin-2-yl}-3-methylphenyl)piperidin-1-yl]sulphonyl}tetrahydro-2H-pyran-4-carboxamide], the IC50 on MMP-9 is above 70 nM; against MMP-14 it was above 2000 nM; on MMP-2 it was above 100 nM; against MMP-1 it was above 1000 nM; at MMP-3, below 10 nM.

Regarding `Cc1cc(C2CCN(S(=O)(=O)C3(C(=O)NO)CCOCC3)CC2)ccc1-c1cccc(OC[C@@H](O)CO)n1` [Example 4, N-Hydroxy 4-{[4-(4-{6-[(2S)-2,3-dihydroxy-1-propoxy]pyridin-2-yl}-3-methylphenyl)piperidin-1-yl]sulphonyl}tetrahydro-2H-pyran-4-carboxamide], the IC50 at MMP-9 was above 70 nM; on MMP-14, above 2000 nM; against MMP-2 it was above 100 nM; at MMP-1, above 1000 nM; against MMP-3, below 10 nM.

`COc1cccc(-c2ccc(C3CCN(S(=O)(=O)C4(C(=O)NO)CC(O)C(O)C4)CC3)cc2C)c1` (stereo not drawn) [Example 24, (1α,3α,4α)-N,3,4-trihydroxy-1-{4-[4-(3-methoxyphenyl)-3-methylphenyl]piperidin-1-ylsulfonyl}cyclopentanecarboxamide] came in with a melting point of 201 to 202 °C.

`Cc1cc(C2CCN(S(=O)(=O)C(C)(C)C(=O)NO)CC2)ccc1-c1cccc(OC[C@@H](O)CO)c1` [Example 8, N-Hydroxy 2-[4-(4-{3-[(2S)-2,3-dihydroxy-1-propoxy]phenyl}-3-methylphenyl)-piperidin-1-ylsulphonyl]-2-methylpropanamide] showed a melting point of 152 to 154 °C.

Compound `Cc1cc(C2CCN(S(=O)(=O)C3(C(=O)NO)CCOCC3)CC2)ccc1-c1cccc(CN2CCOCC2)c1` [Example 17, N-Hydroxy 4-{[4-(3-methyl-4-{3-[4-morpholinylmethyl]}phenyl)piperidin-1-yl]sulphonyl}tetrahydro-2H-pyran-4-carboxamide] returned a melting point of 177 to 179 °C.

In turn, `Cc1cc(C2CCN(S(=O)(=O)C3(C(=O)NO)CC(O)C(O)C3)CC2)ccc1-c1cccc(OCCO)n1` (stereo not drawn) [Example 21, (1α,3α,4α)-N,3,4-trihydroxy-1-[(4-{4-[6-(2-hydroxyethoxy)pyridin-2-yl]-3-methylphenyl}piperidin-1-yl)sulfonyl]cyclopentanecarboxamide] returned a melting point of 215 to 218 °C.

As for `Cc1cc(C2CCN(S(=O)(=O)C3(C(=O)NO)CCNCC3)CC2)ccc1-c1cccc(OCCO)n1` [Example 6, N-Hydroxy 4-{[4-(4-{6-[2-hydroxyethoxy]pyridin-2-yl}-3-methylphenyl)piperidin-1-yl]sulphonyl}-piperidine-4-carboxamide dihydrochloride], the IC50 at MMP-9 is above 70 nM; at MMP-14, above 2000 nM; against MMP-2, above 100 nM; against MMP-1, above 1000 nM; on MMP-3, below 10 nM.

Take `Cc1cc(C2CCN(S(=O)(=O)C3(C(=O)NO)CCN(C)CC3)CC2)ccc1-c1cccc(OCCO)n1` [Example 7, N-Hydroxy 4-{[4-(4-{6-[2-hydroxyethoxy]pyridin-2-yl}-3-methylphenyl)piperidin-1-yl]sulphonyl}-1-methyl-piperidine-4-carboxamide]: the IC50 at MMP-9 was above 70 nM; at MMP-14, above 2000 nM; against MMP-2, above 100 nM; at MMP-1 it was above 1000 nM; against MMP-3, below 10 nM.

The compound `CCOc1cccc(-c2ccc(C3CCN(S(=O)(=O)C4(C(=O)NO)CC(O)C(O)C4)CC3)cc2C)n1` (stereo not drawn) [Example 22, (1α,3α,4α)-1-({4-[4-(6-ethoxypyridin-2-yl)-3-methylphenyl]piperidin-1-yl}sulfonyl)-N,3,4-trihydroxycyclopentanecarboxamide] returned a melting point of 204 to 205 °C.

For the compound `COc1cccc(-c2ccc(C3CCN(S(=O)(=O)C4(C(=O)NO)CC(O)C(O)C4)CC3)cc2C)c1` (stereo not drawn) [Example 25, (1α,3β,4β)-N,3,4-trihydroxy-1-{4-[4-(3-methoxyphenyl)-3-methylphenyl]piperidin-1-ylsulfonyl}cyclopentanecarboxamide], the melting point is 188 to 189 °C.

As for `CCOc1cccc(-c2ccc(C3CCN(S(=O)(=O)C4(C(=O)NO)CC(O)C(O)C4)CC3)cc2C)n1` (stereo not drawn) [Example 23, (1α,3β,4β)-1-({4-[4-(6-ethoxypyridin-2-yl)-3-methylphenyl]piperidin-1-yl}sulfonyl)-N, 3,4-trihydroxycyclopentanecarboxamide], the melting point was in the range of 196 to 197 °C.
